Data on four molecules can be found in publication PMC9837764 (Nature Communications, 2023).

The test system of series [1] is mouse bone marrow erythrocytes. The conditions noted are these: Positive Control 25 mg/Kg i.p.
For series [2], the system named is SARS-CoV-2. Nature of the series: Combination of RdRp inhibitors with SARS-CoV-2 nsp14 inhibitors in infected Calu-3 cells, synergy. Format: cell-based. Further details: EC99 mean: unit not given here. The conditions noted are these: for Response (Fig3C source data for synergy analysis): MB-905 0 nM; for EC50: Severe acute respiratory syndrome coronavirus 2, Calu-3, read-out: EC50 mean.

The conditions of series [3]: human, in vivo; cited from earlier work.
Series [4] has as its system SARS-CoV-2. The series is described as follows: Genomic and subgenomic viral RNA in infected Calu-3 cells (RT-PCR). Format: cell-based. The conditions noted are these: Calu-3, 10 µM, 48 h.
The next series has as its system TNF-α. The series is described as follows: TNF-α in supernatant of SARS-CoV-2-infected human primary monocytes. Format: cell-based. Conditions: infected monocytes, drugs at 10 µM, 24 h. On the procedure:
(§1) Human primary monocytes were obtained after 3 h of plastic adherence of peripheral blood mononuclear cells (PBMCs). The use of primary human cell was approved by Institutional Review Board from the Oswaldo Cruz Foundation under protocol 49971421.8.0000.5248 with signed informed consent in accordance with the Hemotherapy Service of Hospital Clementino Fraga from the Federal University of Rio de Janeiro. All volunteers were de-identified. PBMCs were isolated from healthy donors by density gradient centrifugation (Ficoll-Paque, GE Healthcare). PBMCs (2.0 × 10^6 cells) were plated onto 48-well plates (NalgeNunc) in RPMI-1640 without serum for 2–4 h. Nonadherent cells were removed, and the remaining monocytes were maintained in DMEM with 5% human serum (HS; Millipore) and penicillin/streptomycin. The purity of human monocytes was above 95%, as determined by flow cytometric analysis (FACScan; Becton Dickinson) using anti-CD3 (BD Biosciences, cat # 555342, 1:40), anti-CD16 (Southern Biotech, cat # 561313, 1:20) and APC mouse IgG2a isotype (BD Biosciences, cat # 550882, 1/40) and PE mouse IgG1 isotype (BD Biosciences, 555749, 1/20).

A further series concerns Calu-3 cells. Conditions: human.
Series [5] deals with SARS-CoV-2. Nature of the series: Yield-reduction assay, SARS-CoV-2 in Calu-3 cells (titers as PFU/mL in Vero cells). The conditions noted are these: for Inhibition of SARS-CoV-2 infectious titers (Fig1B source data, replicates): additional treatment at 24 h; for Inhibition of SARS-CoV-2 infectious titers (Fig1A source data, replicates): one treatment.
A further series is described as follows: in vitro. Conditions: human.
Series [6] deals with SARS-CoV-2. The series is described as follows: Cell-associated virus RNA in SARS-CoV-2-infected human primary monocytes. The format is cell-based. Conditions: for Cell-associated virus RNA levels in SARS-CoV-2-infected monocytes: Fig. 1c; for Cell-associated virus RNA loads, inhibition (Fig1C source data, per donor): monocytes. On the procedure: as §1
Total viral RNA from a culture supernatant and/or monolayers was extracted using QIAamp Viral RNA (Qiagen®) according to the manufacturer’s instructions. Quantitative RT‒PCR was performed using GoTaq® Probe qPCR and RT-qPCR Systems (Promega) in a StepOne™ Real-Time PCR System (Thermo Fisher Scientific) ABI PRISM 7500 Sequence Detection System (Applied Biosystems). Amplifications were carried out in 25 µL reaction mixtures containing 2× reaction mix buffer, […] of each primer, 10 µM of probe, and 5 µL of RNA template. Primers, probes, and cycling conditions recommended by the Centers for Disease Control and Prevention (CDC) protocol were used to detect SARS-CoV-2[52]. The standard curve method was employed for virus quantification. For reference to the cell amounts used, the housekeeping gene RNAse P (F-5′-[…] -3′, R-5′[…] -3′, P-5′-FAM-[…] -BHQ-1-3′) was amplified. The Ct values for this target were compared to those obtained for different cell amounts, 10^7 to 10^2, for calibration.

In the next series the test system is IL-6. Nature of the series: IL-6 in supernatant of SARS-CoV-2-infected human primary monocytes. The format is cell-based. The conditions noted are these: infected monocytes, drugs at 10 µM, 24 h. As for the experimental part:
as §1

The test system of the next series is Human primary monocytes. Nature of the series: Monocyte viability (LDH in supernatant). Format: cell-based. The conditions noted are these: 10 µM. The source says: Cellular Viability (%) Remdesivir
Supplementary Fig. 3. Citotoxicity of the compounds.
DMEM containing 2% fetal bovine serum.
Monocytes at a density of 1.5

Setting [7] is: infected Calu-3, compound alone at 10 uM.
Setting [8] is: Severe acute respiratory syndrome coronavirus 2, Calu-3.
The mark [9] stands for this setting: Severe acute respiratory syndrome coronavirus 2, Calu-3, 24 h.
Where [10] appears, read: Drug 0.001, Calu-3, MOI 0.1, 48 h.

Each structure is given as a SMILES string. Several values for one entry are separate records, joined by “and”; a condition that tells them apart may be missing. Equal entries are not always repeated.

Experimental for in vitro: Monolayers of 1.5 × 10^4 cells in 96-well plates were treated for 3 days with various concentrations (semilog dilutions from 1000 to 10 µM) of the antiviral drugs. Then, 5 mg/ml 2,3-bis-(2-methoxy-4-nitro-5-sulfophenyl)−2H-tetrazolium-5-carboxanilide (XTT) in DMEM was added to the cells in the presence of 0.01% N-methyl dibenzopyrazine methyl sulfate (PMS).

As to `O=P1(N(CCCl)CCCl)NCCCO1` (stereo not shown) [Cyclophosphamide, reference compound], in series [1], the “MNPCE/4,000 PCE (Mean ± S.D.)” value was 16.20 ± 6.03 and the “Ratio PCE/NCE (Mean ± S.D.)” value was 1.44 ± 0.29.

As for `C[C@@H]1CCO[C@H]2Cn3cc(C(=O)NCc4ccc(F)cc4F)c(=O)c(O)c3C(=O)N12` [DTG, dolutegravir], the “Response (Fig3C source data for synergy analysis)” value was 14 in the series on SARS-CoV-2 [2] (DTG 1000 nM), 53 in the series with SARS-CoV-2 [2] (DTG 5000 nM), 74 in the series on SARS-CoV-2 [2] (DTG 10000 nM) and 75 in the series on SARS-CoV-2 [2] (DTG 15000 nM). Also, the half-maximal effective concentration (EC50) in the series on SARS-CoV-2 [2] was 5.3 µM. Moreover, the “Effects on SARS-CoV-2 replication” value with SARS-CoV-2 [2] (alone at 5 µM, Calu-3) is given as “marginal effects”. Moreover, in the series with SARS-CoV-2 [2] (infected Calu-3, DTG alone at 5uM), the “Virus productive titers (Fig3B source data, replicates)” value is 224000 and 448000. Also, in series [3], the peak concentration (Cmax) was 15 µM. For the same molecule, the “Plasma concentration at Cmin” value in [3] is 1.5 µM.

As for `OC[C@H]1O[C@@H](n2cnc3c(NCc4ccco4)ncnc32)[C@H](O)[C@@H]1O` [MB-801, Kinetin riboside], the “Genomic viral RNA (Fig2B source data, replicates)” value with SARS-CoV-2 [4] is 0.3 and 0.1 and 0.22. Also, the “Subgenomic viral RNA (Fig2B source data, replicates)” value in the series on SARS-CoV-2 [4] is 0.5 and 0.45 and 0.56. In addition, in the series with TNF-α, the “TNF-α levels in the culture supernatant (Fig1D source data, per donor)” value was 1.6 and 1.8 and 0.638 and 4.1 and 2.6. Also, the values for the CC50 with Calu-3 cells and in “in vitro” were 530 ± 65 µM and 550 ± 32 µM, respectively. The “Virus productive titers (Fig3A source data, replicates)” value in the series on SARS-CoV-2 [2] (setting [7]) was 32000 and 36000 and 38000. Also, the “Virus productive titers (Fig3B source data, replicates)” value in the series on SARS-CoV-2 [2] (setting [7]) is 32000 and 36000 and 38000. For the same molecule, the EC50 was 0.18 ± 0.02 µM in the series on SARS-CoV-2 [5] (setting [8]) and 0.02 ± 0.003 µM in the series with SARS-CoV-2 [5] (setting [9]). Also, the “Inhibition of SARS-CoV-2 infectious titers (Fig1B source data, replicates)” value in the series on SARS-CoV-2 [5] (Drug 0.001, Calu-3, 48 h) was 18 and 20 and 16; in the series on SARS-CoV-2 [5] (Drug 0.01), 39 and 40 and 54; with SARS-CoV-2 [5] (Drug 0.1), 62 and 60 and 58; with SARS-CoV-2 [5] (Drug 1), 81 and 86 and 58; with SARS-CoV-2 [5] (Drug 10), 98 (2×) and 99. Moreover, the “Inhibition of SARS-CoV-2 infectious titers (Fig1A source data, replicates)” value was 2 and 4 and 5 with SARS-CoV-2 [5] (setting [10]); 27 and 20 and 32 in the series on SARS-CoV-2 [5] (Drug 0.01); 40 and 53 and 50 in the series with SARS-CoV-2 [5] (Drug 0.1); 63 and 67 and 57 in the series on SARS-CoV-2 [5] (Drug 1); 95 and 94 and 72 in the series with SARS-CoV-2 [5] (Drug 10). The “Cell-associated virus RNA levels in SARS-CoV-2-infected monocytes” value in the series with SARS-CoV-2 [6] was “reduced cell-associated virus RNA levels in a concentration-dependent manner”. Moreover, the “Cell-associated virus RNA loads, inhibition (Fig1C source data, per donor)” value is 36 and 65 and 10 and 20 and 30 and 40 in the series on SARS-CoV-2 [6] (24 h, Drug 1); 33 and 76 and 10 and 20 and 30 and 36 with SARS-CoV-2 [6] (24 h, Drug 10); 17 and 66 and 24 and 12 and 9 and 25 with SARS-CoV-2 [6] (MOI 0.1, 24 h, Drug 0.1). For the same molecule, in the series on IL-6, the “IL-6 levels in the culture supernatant (Fig1E source data, per donor)” value was 2.2 and 1.8 and 0.121 and 4.3 and 3.4 and 0.355 and 1.5 and 2.9.

As to `CC(C)C(=O)OC[C@H]1O[C@@H](n2ccc(NO)nc2=O)[C@H](O)[C@@H]1O` [MK-4482, molnupiravir, reference compound], the CC50 is 53 ± 12 µM in the series on Calu-3 cells and 58 ± 18 µM in the series “in vitro”. The EC99 mean with SARS-CoV-2 [2] (Calu-3 cells, alone or with nsp14 inhibitor at the concentration of the label, unit not given) came to 9. For the same molecule, the EC50 with SARS-CoV-2 [2] stood at 0.8 µM; in the series with SARS-CoV-2 [5] (setting [8]) it was 0.72 ± 0.12 µM; with SARS-CoV-2 [5] (setting [9]) it was 0.02 ± 0.008 µM. Besides, the 90% effect concentration (EC90) in the series on SARS-CoV-2 [2] (Severe acute respiratory syndrome coronavirus 2, Calu-3, read-out: EC90 mean) was determined as 7 µM. Also, the “Inhibition of SARS-CoV-2 infectious titers (Fig1A source data, replicates)” value in the series with SARS-CoV-2 [5] (setting [10]) was 3 and 4 and 5; with SARS-CoV-2 [5] (Drug 0.01), 13 and 6 and 16; in the series with SARS-CoV-2 [5] (Drug 0.1) it was 48 and 30 and 35; with SARS-CoV-2 [5] (Drug 1), 71 and 60 and 50; in the series with SARS-CoV-2 [5] (Drug 10), 100 and 99 and 95. The “Cell-associated virus RNA levels in SARS-CoV-2-infected monocytes” value with SARS-CoV-2 [6] was “relatively low activity”. Moreover, the “Cell-associated virus RNA loads, inhibition (Fig1C source data, per donor)” value in the series with SARS-CoV-2 [6] (24 h, Drug 1) is 25 (2×) and 23; in the series with SARS-CoV-2 [6] (24 h, Drug 10), 1; in the series on SARS-CoV-2 [6] (MOI 0.1, 24 h, Drug 0.1) it was 12 (2×) and 18. The Monocyte viability entry with Human primary monocytes is “drastically reduced”.
